# Test system: NHDF
# Assay: Antiproliferative activity against NHDF at 30 uM after 72 hrs by MTT assay relative to control
# Type: cell-based
# Conditions: human
row,Compound,Activity [%]
1,CC(NNc1ccccc1)=C1C(=O)NC(=O)NC1=O,74.87
2,CC(NNc1ccccc1)=C1C(=O)N(C)C(=O)N(C)C1=O,65.56
3,CC(NNc1ccc([N+](=O)[O-])cc1)=C1C(=O)N(C)C(=O)N(C)C1=O,77.63
4,O=C1NC(=S)NC(=O)C1=CNc1ccc([N+](=O)[O-])cc1Cl,76.01
5,O=c1[nH]cc(F)c(=O)[nH]1 [FLUOROURACIL],58.31
6,O=C1NC(=S)NC(=O)C1=CNc1ccccc1Cl,65.67
7,NC(=S)NC=C1C(=O)N(c2ccccc2)C(=S)N(c2ccccc2)C1=O,95.17
8,CN1C(=O)C(=CNc2cc([N+](=O)[O-])ccc2Cl)C(=O)N(C)C1=O,66.98
9,NC(S)=NC=C1C(=O)NC(=O)NC1=O,78.05

# Test system: not listed separately
# Assay: Antioxidant activity assessed as DPPH radical scavenging activity at 30 uM after 20 mins by spectrophotometric method relative to control
# Type: functional
# Conditions: not given
row,Compound,Activity [%]
1,CC(NNc1ccccc1)=C1C(=O)NC(=O)NC1=O,77.1
2,CC(NNc1ccccc1)=C1C(=O)N(C)C(=O)N(C)C1=O,77.1
3,Cc1c(C)c2c(c(C)c1O)CCC(C)(C(=O)O)O2 (centres undefined) [TROLOX],70
4,CC(NNc1ccc([N+](=O)[O-])cc1)=C1C(=O)N(C)C(=O)N(C)C1=O,71.2
5,O=C1NC(=S)NC(=O)C1=CNc1ccc([N+](=O)[O-])cc1Cl,0.91
6,O=C1NC(=S)NC(=O)C1=CNc1ccccc1Cl,1.12
7,NC(=S)NC=C1C(=O)N(c2ccccc2)C(=S)N(c2ccccc2)C1=O,23.1
8,CN1C(=O)C(=CNc2cc([N+](=O)[O-])ccc2Cl)C(=O)N(C)C1=O,-0.82
9,NC(S)=NC=C1C(=O)NC(=O)NC1=O,6.73

# Test system: Escherichia coli
# Assay: Antibacterial activity against Escherichia coli ATCC 25922 after 24 hrs by broth microdilution method
# Type: functional
# Conditions: ATCC 25922, 24 h
row,Compound,MIC [µM]
1,CC(NNc1ccccc1)=C1C(=O)NC(=O)NC1=O,> 200
2,CC(NNc1ccccc1)=C1C(=O)N(C)C(=O)N(C)C1=O,> 200
3,CC(NNc1ccc([N+](=O)[O-])cc1)=C1C(=O)N(C)C(=O)N(C)C1=O,> 200
4,O=C1NC(=S)NC(=O)C1=CNc1ccc([N+](=O)[O-])cc1Cl,> 200
5,O=C1NC(=S)NC(=O)C1=CNc1ccccc1Cl,> 200
6,NC(=S)NC=C1C(=O)N(c2ccccc2)C(=S)N(c2ccccc2)C1=O,> 200
7,CN1C(=O)C(=CNc2cc([N+](=O)[O-])ccc2Cl)C(=O)N(C)C1=O,> 200
8,NC(S)=NC=C1C(=O)NC(=O)NC1=O,> 200

# Test system: MCF7
# Assay: cells
# Conditions: Homo sapiens, MCF7, 72 h
row,Compound,IC50 [µM]
1,O=C1NC(=S)NC(=O)C1=CNc1ccc([N+](=O)[O-])cc1Cl,13.2
2,O=c1[nH]cc(F)c(=O)[nH]1 [FLUOROURACIL],2.35

# Test system: Klebsiella pneumoniae
# Assay: Antibacterial activity against Klebsiella pneumoniae ATCC 13883 after 24 hrs by broth microdilution method
# Type: functional
# Conditions: ATCC 13883, 24 h
row,Compound,MIC [µM]
1,CC(NNc1ccccc1)=C1C(=O)NC(=O)NC1=O,> 200
2,CC(NNc1ccccc1)=C1C(=O)N(C)C(=O)N(C)C1=O,> 200
3,CC(NNc1ccc([N+](=O)[O-])cc1)=C1C(=O)N(C)C(=O)N(C)C1=O,> 200
4,O=C1NC(=S)NC(=O)C1=CNc1ccc([N+](=O)[O-])cc1Cl,> 200
5,O=C1NC(=S)NC(=O)C1=CNc1ccccc1Cl,> 200
6,NC(=S)NC=C1C(=O)N(c2ccccc2)C(=S)N(c2ccccc2)C1=O,> 200
7,CN1C(=O)C(=CNc2cc([N+](=O)[O-])ccc2Cl)C(=O)N(C)C1=O,> 200
8,NC(S)=NC=C1C(=O)NC(=O)NC1=O,> 200

# Test system: Staphylococcus aureus
# Assay: Antibacterial activity against Staphylococcus aureus ATCC 25923 after 24 hrs by broth microdilution method
# Type: functional
# Conditions: ATCC 25923, 24 h
row,Compound,MIC [µM]
1,CC(NNc1ccccc1)=C1C(=O)NC(=O)NC1=O,> 200
2,CC(NNc1ccccc1)=C1C(=O)N(C)C(=O)N(C)C1=O,> 200
3,CC(NNc1ccc([N+](=O)[O-])cc1)=C1C(=O)N(C)C(=O)N(C)C1=O,> 200
4,O=C1NC(=S)NC(=O)C1=CNc1ccc([N+](=O)[O-])cc1Cl,> 200
5,O=C1NC(=S)NC(=O)C1=CNc1ccccc1Cl,> 200
6,NC(=S)NC=C1C(=O)N(c2ccccc2)C(=S)N(c2ccccc2)C1=O,> 200
7,CN1C(=O)C(=CNc2cc([N+](=O)[O-])ccc2Cl)C(=O)N(C)C1=O,> 200
8,NC(S)=NC=C1C(=O)NC(=O)NC1=O,> 200

# Test system: NHDF
# Assay: Antiproliferative activity against NHDF after 72 hrs by MTT assay
# Type: cell-based
# Conditions: Homo sapiens
row,Compound,IC50 [µM]
1,CC(NNc1ccccc1)=C1C(=O)N(C)C(=O)N(C)C1=O,82
2,O=c1[nH]cc(F)c(=O)[nH]1 [FLUOROURACIL],7.38

# Test system: Bacillus cereus
# Assay: Antibacterial activity against Bacillus cereus ATCC 1178 after 24 hrs by broth microdilution method
# Type: functional
# Conditions: ATCC 1178, 24 h
row,Compound,MIC [µM]
1,CC(NNc1ccccc1)=C1C(=O)NC(=O)NC1=O,> 200
2,CC(NNc1ccccc1)=C1C(=O)N(C)C(=O)N(C)C1=O,> 200
3,CC(NNc1ccc([N+](=O)[O-])cc1)=C1C(=O)N(C)C(=O)N(C)C1=O,> 200
4,O=C1NC(=S)NC(=O)C1=CNc1ccc([N+](=O)[O-])cc1Cl,> 200
5,O=C1NC(=S)NC(=O)C1=CNc1ccccc1Cl,> 200
6,NC(=S)NC=C1C(=O)N(c2ccccc2)C(=S)N(c2ccccc2)C1=O,> 200
7,CN1C(=O)C(=CNc2cc([N+](=O)[O-])ccc2Cl)C(=O)N(C)C1=O,> 200
8,NC(S)=NC=C1C(=O)NC(=O)NC1=O,> 200

# Test system: not listed separately
# Assay: Antioxidant activity assessed as DPPH radical scavenging activity after 60 mins by spectrophotometric method
# Type: functional
# Conditions: not given
row,Compound,IC50 [µM]
1,CC(NNc1ccccc1)=C1C(=O)NC(=O)NC1=O,20.4
2,CC(NNc1ccccc1)=C1C(=O)N(C)C(=O)N(C)C1=O,18.8
3,Cc1c(C)c2c(c(C)c1O)CCC(C)(C(=O)O)O2 (centres undefined) [TROLOX],35.9
4,CC(NNc1ccc([N+](=O)[O-])cc1)=C1C(=O)N(C)C(=O)N(C)C1=O,23.8

# Test system: MCF7
# Assay: Antiproliferative activity against human MCF7 cells at 30 uM after 72 hrs by MTT assay relative to control
# Type: functional
# Conditions: not given
row,Compound,Activity [%]
1,CC(NNc1ccccc1)=C1C(=O)NC(=O)NC1=O,40.24
2,CC(NNc1ccccc1)=C1C(=O)N(C)C(=O)N(C)C1=O,57.38
3,CC(NNc1ccc([N+](=O)[O-])cc1)=C1C(=O)N(C)C(=O)N(C)C1=O,76.99
4,O=C1NC(=S)NC(=O)C1=CNc1ccc([N+](=O)[O-])cc1Cl,32.43
5,O=c1[nH]cc(F)c(=O)[nH]1 [FLUOROURACIL],11.88
6,O=C1NC(=S)NC(=O)C1=CNc1ccccc1Cl,47.17
7,NC(=S)NC=C1C(=O)N(c2ccccc2)C(=S)N(c2ccccc2)C1=O,90.04
8,CN1C(=O)C(=CNc2cc([N+](=O)[O-])ccc2Cl)C(=O)N(C)C1=O,50.07
9,NC(S)=NC=C1C(=O)NC(=O)NC1=O,71.09

# Test system: Acinetobacter baumannii
# Assay: Antibacterial activity against Acinetobacter baumannii LMG 1025 after 24 hrs by broth microdilution method
# Type: functional
# Conditions: LMG 1025, 24 h
row,Compound,MIC [µM]
1,CC(NNc1ccccc1)=C1C(=O)NC(=O)NC1=O,25
2,CC(NNc1ccccc1)=C1C(=O)N(C)C(=O)N(C)C1=O,25
3,CC(NNc1ccc([N+](=O)[O-])cc1)=C1C(=O)N(C)C(=O)N(C)C1=O,12.5
4,O=C1NC(=S)NC(=O)C1=CNc1ccc([N+](=O)[O-])cc1Cl,> 200
5,O=C1NC(=S)NC(=O)C1=CNc1ccccc1Cl,> 200
6,NC(=S)NC=C1C(=O)N(c2ccccc2)C(=S)N(c2ccccc2)C1=O,> 200
7,CN1C(=O)C(=CNc2cc([N+](=O)[O-])ccc2Cl)C(=O)N(C)C1=O,> 200
8,NC(S)=NC=C1C(=O)NC(=O)NC1=O,> 200

# Test system: Salmonella typhimurium
# Assay: Antibacterial activity against Salmonella typhimurium ATCC 13311 after 24 hrs by broth microdilution method
# Type: functional, Salmonella enterica subsp. enterica serovar Typhimurium
# Conditions: Salmonella enterica, ATCC 13311, 24 h
row,Compound,MIC [µM]
1,CC(NNc1ccccc1)=C1C(=O)NC(=O)NC1=O,> 200
2,CC(NNc1ccccc1)=C1C(=O)N(C)C(=O)N(C)C1=O,> 200
3,CC(NNc1ccc([N+](=O)[O-])cc1)=C1C(=O)N(C)C(=O)N(C)C1=O,> 200
4,O=C1NC(=S)NC(=O)C1=CNc1ccc([N+](=O)[O-])cc1Cl,> 200
5,O=C1NC(=S)NC(=O)C1=CNc1ccccc1Cl,> 200
6,NC(=S)NC=C1C(=O)N(c2ccccc2)C(=S)N(c2ccccc2)C1=O,> 200
7,CN1C(=O)C(=CNc2cc([N+](=O)[O-])ccc2Cl)C(=O)N(C)C1=O,> 200
8,NC(S)=NC=C1C(=O)NC(=O)NC1=O,> 200

# Test system: not listed separately
# Assay: Antioxidant activity assessed as DPPH radical scavenging activity at 30 uM after 60 mins by spectrophotometric method relative to control
# Type: functional
# Conditions: not given
row,Compound,Activity [%]
1,CC(NNc1ccccc1)=C1C(=O)NC(=O)NC1=O,78.1
2,CC(NNc1ccccc1)=C1C(=O)N(C)C(=O)N(C)C1=O,76.7
3,Cc1c(C)c2c(c(C)c1O)CCC(C)(C(=O)O)O2 (centres undefined) [TROLOX],70.3
4,CC(NNc1ccc([N+](=O)[O-])cc1)=C1C(=O)N(C)C(=O)N(C)C1=O,76
5,O=C1NC(=S)NC(=O)C1=CNc1ccc([N+](=O)[O-])cc1Cl,0.5
6,O=C1NC(=S)NC(=O)C1=CNc1ccccc1Cl,0.92
7,NC(=S)NC=C1C(=O)N(c2ccccc2)C(=S)N(c2ccccc2)C1=O,32
8,CN1C(=O)C(=CNc2cc([N+](=O)[O-])ccc2Cl)C(=O)N(C)C1=O,0
9,NC(S)=NC=C1C(=O)NC(=O)NC1=O,16.6

# Test system: not listed separately
# Assay: Antioxidant activity assessed as DPPH radical scavenging activity after 20 mins by spectrophotometric method
# Type: functional
# Conditions: not given
row,Compound,IC50 [µM]
1,CC(NNc1ccccc1)=C1C(=O)NC(=O)NC1=O,23.9
2,CC(NNc1ccccc1)=C1C(=O)N(C)C(=O)N(C)C1=O,22.6
3,Cc1c(C)c2c(c(C)c1O)CCC(C)(C(=O)O)O2 (centres undefined) [TROLOX],33.8
4,CC(NNc1ccc([N+](=O)[O-])cc1)=C1C(=O)N(C)C(=O)N(C)C1=O,23.9

# Test system: Pseudomonas aeruginosa
# Assay: Antibacterial activity against Pseudomonas aeruginosa ATCC 27853 after 24 hrs by broth microdilution method
# Type: functional
# Conditions: ATCC 27853, 24 h
row,Compound,MIC [µM]
1,CC(NNc1ccccc1)=C1C(=O)NC(=O)NC1=O,> 200
2,CC(NNc1ccccc1)=C1C(=O)N(C)C(=O)N(C)C1=O,> 200
3,CC(NNc1ccc([N+](=O)[O-])cc1)=C1C(=O)N(C)C(=O)N(C)C1=O,> 200
4,O=C1NC(=S)NC(=O)C1=CNc1ccc([N+](=O)[O-])cc1Cl,> 200
5,O=C1NC(=S)NC(=O)C1=CNc1ccccc1Cl,> 200
6,NC(=S)NC=C1C(=O)N(c2ccccc2)C(=S)N(c2ccccc2)C1=O,> 200
7,CN1C(=O)C(=CNc2cc([N+](=O)[O-])ccc2Cl)C(=O)N(C)C1=O,> 200
8,NC(S)=NC=C1C(=O)NC(=O)NC1=O,> 200

# Reference: ChEMBL document CHEMBL4138236, “Trisubstituted barbiturates and thiobarbiturates: Synthesis and biological evaluation as xanthine oxidase inhibitors, antioxidants, antibacterial and anti-proliferative agents” (Eur J Med Chem, 2018)
